Measurements published in ChEMBL document CHEMBL4732213, “Discovery of novel ceramide analogs with favorable pharmacokinetic properties and combination with AKT inhibitor against colon cancer” (Eur J Med Chem, 2021).
The source made the active and inactive calls. The rule behind the calls is not given here.

How the values were obtained:
HT-29 [1] = assay: Upregulation of p21 protein expression in human HT29 cells at 20 uM incubated for 24 hrs in presence of 10 uM AKT inhibitor MK2206 by Western blotting analysis; assay type: functional, cell-based
HT-29 [2] = assay: Induction of cell cycle arrest in human HT29 cells assessed as accumulation at G0/G1 phase at 20 uM after 24 hrs in presence of 10 uM AKT inhibitor MK2206 by PI staining based flow cytometry analysis; assay type: functional
HT-29 [3] = assay: Antiproliferative activity against human HT-29 cells measured after 72 hrs by sulforhodamine B assay; assay type: functional, cell-based; conditions: HT-29, 72 h
HT-29 [4] = assay: Induction of apoptosis in human HT29 cells at 15 uM after 48 hrs by Annexin-V-FITC/PI staining based flow cytometric analysis; assay type: functional, cell-based
WI-38 = assay: Antiproliferative activity against human WI-38 cells measured after 72 hrs by sulforhodamine B assay; assay type: cell-based; conditions: WI-38, 72 h
HT-29 [5] = assay: Antitumor activity against human HT-29 cells xenografted in BALB/c nude mouse assessed as reduction in tumor weight at 100 mg/kg/day, ip measured every 3 days in presence of 50 mg/kg AKT inhibitor MK2206 by electronic caliper method; assay type: functional, organism-based; conditions: time 3.0 day
HT-29 [6] = assay: Down regulation of cyclin A expression in human HT29 cells at 20 uM incubated for 24 hrs in presence of 10 uM AKT inhibitor MK2206 by Western blotting analysis; assay type: functional, cell-based
T84 [7] = assay: Additive antiproliferative activity against human T84 cells assessed as combination index at 5 uM after 72 hrs in presence of 2.5 uM AKT inhibitor MK2206 by Chou-Talalay method; assay type: functional
HT-29 [8] = assay: Down regulation of CDK2 expression in human HT29 cells at 20 uM incubated for 24 hrs in presence of 10 uM AKT inhibitor MK2206 by Western blotting analysis; assay type: functional, cell-based
[9] = Half life in BALB/c mouse at 10 mg/kg, iv; assay type: ADME, organism-based; conditions: in vivo
[10] = AUC(0 to t) in BALB/c mouse at 50 mg/kg, ip; assay type: ADME, organism-based; parameters: dose 50 mg/kg; conditions: in vivo
[11] = AUC(0 to t) in BALB/c mouse at 10 mg/kg, iv; assay type: ADME, organism-based; parameters: dose 10 mg/kg; conditions: in vivo
HT-29 [12] = assay: Down regulation of CDK4 expression in human HT29 cells at 20 uM incubated for 24 hrs in presence of 10 uM AKT inhibitor MK2206 by Western blotting analysis; assay type: functional, cell-based
T84 [13] = assay: Synergistic antiproliferative activity against human T84 cells assessed as combination index at 20 uM after 72 hrs in presence of 10 uM AKT inhibitor MK2206 by Chou-Talalay method; assay type: functional
HT-29 [14] = assay: Antitumor activity against human HT-29 cells xenografted in BALB/c nude mouse assessed as tumor growth inhibition at 100 mg/kg/day, ip measured every 3 days in presence of 50 mg/kg AKT inhibitor MK2206 by electronic caliper method; assay type: functional; conditions: HT-29, ip, 72 h, time 3 day, read-out: TGI
[15] = Antiproliferative activity against human SNU878 cells measured after 72 hrs by sulforhodamine B assay; assay type: functional, cell-based; conditions: SNU878, 72 h
HCT-8 = assay: Antiproliferative activity against human HCT8 cells measured after 72 hrs by sulforhodamine B assay; assay type: functional, cell-based; conditions: HCT-8, 72 h
HT-29 [16] = assay: Induction of apoptosis in human HT29 cells assessed as increase in PARP cleavage at 20 uM after 48 hrs in presence of 10 uM AKT inhibitor MK2206 by Western blot analysis; assay type: functional, cell-based
HT-29 [17] = assay: Induction of ROS generation in human HT29 cells at 20 uM after 16 hrs by flow cytometric analysis; assay type: functional, cell-based
COLO-678 = assay: Additive antiproliferative activity against human COLO-678 cells assessed as combination index at 20 uM after 72 hrs in presence of 5 uM AKT inhibitor MK2206 by Chou-Talalay method; assay type: functional
[18] = AUC(0 to infinity) in BALB/c mouse at 10 mg/kg, iv; assay type: ADME, organism-based; parameters: route intravenous, time infinity, dose 10 mg/kg; conditions: in vivo

IC50 (HT-29 [3]): 17.6 µM
half-life [9]: 3.12 h
AUC(0-t) [10]: 15600 ng·h/mL
AUC(0-t) [11]: 3060 ng·h/mL
IC50 (HCT-8): 21.8 µM
AUC(0-inf) [18]: 3060 ng·h/mL
Compound: CCCCCCCOc1ccc(CCC(CO)(CO)NC(C)=O)c2ccccc12
Activity (HT-29 [1]): Active
Activity (HT-29 [2]): Active
Activity (HT-29 [4]): inactive
IC50 (WI-38): 50.9 µM
Activity (HT-29 [5]): Active
Activity (HT-29 [6]): Active
CI (T84 [7]): 1.1
Activity (HT-29 [8]): Active
Activity (HT-29 [12]): Active
CI (T84 [13]): 0.65
inhibition in vivo at 100 mg/kg/day (HT-29 [14]): 47.5%
IC50 [15]: 6.68 µM
Activity (HT-29 [16]): Active
Activity (HT-29 [17]): inactive
CI (COLO-678): 0.89
